Assay results published in patent publication US20020183313A1, “1,4-benzodiazepinones and their uses as CCK antagonists” (Fujisawa Pharmaceutical Co., Ltd., priority 1996, published 2002).

| melting point | Compound |
| --- | --- |
| 164 to 166 °C | Cc1cccc(NC(=O)NC2N=C(CC3CCCCC3)c3ccccc3N(CC(=O)N3CC4CCC(CC4)C3)C2=O)c1 (racemic) |
| 236.8 to 242.1 °C | Cc1cccc2c1N(CC(=O)N1CC3CCC(CC3)C1)C(=O)C(NC(=O)Nc1cccc(C=O)c1)N=C2c1ccccc1F (racemic) |
| 172 to 174.4 °C | Cc1cccc(NC(=O)NC2N=C(C3CC3)c3cccc(C)c3N(CC(=O)N3CC4CCC(CC4)C3)C2=O)c1 (racemic) |
| 130.1 to 133 °C | CCC1=NC(NC(=O)Nc2cccc(C)c2)C(=O)N(CC(=O)N2CC3CCC(CC3)C2)c2c(C)cccc21 (racemic) |
| 225 to 229 °C | CC1=NC(NC(=O)Nc2cccc(C)c2)C(=O)N(Cc2ncccc2C)c2ccccc21 (racemic) [8(1), N-[(3RS)-2,3-dihydro-5-methyl-1-(3-methylpyridin-2-yl)methyl-2-oxo-1H-1,4-benzodiazepin-3-yl]-N′-(3-methylphenyl)urea] |
| 215 to 219 °C | CC(=O)c1sccc1CN1C(=O)C(NC(=O)Nc2cccc(C)c2)N=C(C)c2ccccc21 (racemic) [8(3), N-[(3RS)-1-(2-acetylthiophen-3-yl)methyl-2,3-dihydro-5-methyl-2-oxo-1H-1,4-benzodiazepin-3-yl]-N′-(3-methylphenyl)urea] |
| 151 to 154 °C | Cc1cccc(NC(=O)NC2N=C(CCC(C)C)c3ccccc3N(Cc3ncccc3C)C2=O)c1 (racemic) [9(1), N-[(3RS)-2,3-dihydro-5-(3-methylbutyl)-1-(3-methylpyridin-2-yl)methyl-2-oxo-1H-1,4-benzodiazepin-3-yl]-N′-(3-methylphenyl)urea] |
| 190 to 195 °C | CC(=O)c1sccc1CN1C(=O)C(NC(=O)Nc2cccc(C)c2)N=C(CCC(C)C)c2ccccc21 (racemic) [9(2), N-[(3RS)-1-(2-acetylthiophen-3-yl)methyl-2,3-dihydro-5-(3-methylbutyl)-2-oxo-1H-1,4-benzodiazepin-3-yl]-N′-(3-methylphenyl)urea] |
| 198.9 to 200.7 °C | Cc1cccc2c1N(C)C(=O)C(NC(=O)Nc1cccc(-c3nnn[nH]3)c1)N=C2C1CCCCC1 (racemic) [17(1), N-[(3RS)-5-Cyclohexyl-2,3-dihydro-1,9-dimethyl-2-oxo-1H-1,4-benzodiazepin-3-yl]-N′-[3-(tetrazol-5-yl)phenyl]urea] |
| 165 to 176.6 °C | Cc1ccccc1C(=O)CN1C(=O)C(NC(=O)Nc2cccc(-c3nnn[nH]3)c2)N=C(C2CCCCC2)c2cccc(C)c21 (racemic) [24(1), N-[(3RS)-5-Cyclohexyl-9-methyl-2,3-dihydro-1-(2-methylphenacyl)-2-oxo-1H-1,4-benzodiazepin-3-yl]-N′-[3-(tetrazol-5-yl)phenyl]urea] |
| 126.7 to 145.2 °C | Cc1ccccc1C(=O)CN1C(=O)C(NC(=O)c2cc3ccccc3[nH]2)N=C(C2CCCCC2)c2cccc(C)c21 (racemic) [24(2), (3RS)-5-Cyclohexyl-2,3-dihydro-3-(indol-2-yl)carbonylamino-9-methyl-1-(2-methylphenacyl)-1H-1,4-benzodiazepin-2-one] |
| 214.5 to 217.3 °C | CC1=NC(NC(=O)Nc2cccc(C)c2)C(=O)N(CC(=O)N2CCC(N3CCCCC3)CC2)c2c(C)cccc21 (racemic) [48-3(1), N-[(3RS)-1-[4-(Piperidino)piperidin-1-yl]carbonylmethyl-5,9-dimethyl-2,3-dihydro-2-oxo-1H-1,4-benzodiazepin-3-yl]-N′-(3-methylphenyl)urea] |
| 163.2 to 164.9 °C | CC1=NC(NC(=O)Nc2cccc(C)c2)C(=O)N(CC(=O)N2CCC(O)(c3ccccc3)CC2)c2c(C)cccc21 (racemic) [48-3(6), N-[(3RS)-1-(4-Hydroxy-4-phenylpiperidin-1-yl)carbonylmethyl-5,9-dimethyl-2,3-dihydro-2-oxo-1H-1,4-benzodiazepin-3-yl]-N′-(3-methylphenyl)urea] |
| 243.4 to 244.4 °C | CC1=NC(NC(=O)Nc2cccc(C)c2)C(=O)N(CC(=O)NC(C)(C)C)c2c(C)cccc21 (racemic) [48-3(11), N-[(3RS)-2,3-Dihydro-5,9-dimethyl-1-(N-tert-butylamino-carbonylmethyl)-2-oxo-1H-1,4-benzodiazepin-3-yl]-N′-(3-methylphenyl)urea] |
| 221.7 to 224.2 °C | CC1=NC(NC(=O)Nc2cccc(C)c2)C(=O)N(CC(=O)N2CCN(CCO)CC2)c2c(C)cccc21 (racemic) [48-3(14), N-[(3RS)-2,3-Dihydro-1-[4-(2-hydroxyethyl)piperazin-1-yl]carbonylmethyl-5,9-dimethyl-2-oxo-1H-1,4-benzodiazepin-3-yl]-N′-(3-methylphenyl)urea] |
| 226.9 to 228.1 °C | CC1=NC(NC(=O)Nc2cccc(C)c2)C(=O)N(CC(=O)N(CC(C)C)CC(C)C)c2c(C)cccc21 (racemic) [48-3(15), N-[(3 RS)-2,3-Dihydro-1-(N,N-diisobutylamino)carbonylmethyl-5,9-dimethyl-2-oxo-1H-1,4-benzodiazepin-3-yl]-N′-(3-methylphenyl)urea] |
| 160.5 to 161.1 °C | CC1=NC(NC(=O)Nc2cccc(C)c2)C(=O)N(CC(=O)N(CCO)CCO)c2c(C)cccc21 (racemic) [48-3(16), N-[(3RS)-2,3-Dihydro-1-(N,N-bis-(2-hydroxyethyl)amino)-carbonylmethyl-5,9-dimethyl-2-oxo-1H-1,4-benzodiazepin-3-yl]-N′-(3-methylphenyl)urea] |
| 147.9 to 149.1 °C | Cc1cccc(NC(=O)NC2N=C(CN(C)C)c3cccc(C)c3N(CC(=O)N3CCCCCCC3)C2=O)c1 (racemic) [71-3(1), N-[(3RS)-1-(azacyclooctan-1-yl)carbonylmethyl-2,3-dihydro-5-(N,N-dimethylamino)methyl-9-methyl-2-oxo-1H-1,4-benzodiazepin-3-yl]-N′-(3-methylphenyl)urea] |
| 137.9 to 141 °C | Cc1cccc(NC(=O)NC2N=C(C=O)c3cccc(C)c3N(CC(=O)N3CCCCCCC3)C2=O)c1 (racemic) [71-3(2), N-[(3RS)-1-(azacyclooctan-1-yl)carbonylmethyl-2,3-dihydro-5-formyl-9-methyl-2-oxo-1H-1,4-benzodiazepin-3-yl]-N′-(3-methylphenyl)urea] |
| 175.2 to 177.7 °C | CCOC(=O)C=CC1=NC(NC(=O)Nc2cccc(C)c2)C(=O)N(CC(=O)N2CCCCCCC2)c2c(C)cccc21 (racemic) [75(1)-1, N-[(3RS)-1-(azacyclooctan-1-yl)carbonylmethyl-2,3-dihydro-5-((EZ)-2-(ethoxycarbonyl)ethenyl)-9-methyl-2-oxo-1H-1,4-benzodiazepin-3-yl]-N′-(3-methylphenyl)urea] |
| 129.3 to 134.1 °C | Cc1cccc(NC(=O)NC2N=C(C=CC(=O)O)c3cccc(C)c3N(CC(=O)N3CCCCCCC3)C2=O)c1 (racemic) [75(1)-2, N-[(3RS)-1-(azacyclooctan-1-yl)carbonylmethyl-2,3-dihydro-5-((EZ)-2-carboxylethenyl)-9-methyl-2-oxo-1H-1,4-benzodiazepin-3-yl]-N′-(3-methylphenyl)urea] |
| 219 to 221 °C (dec.) | CC(=O)c1sccc1CN1C(=O)C(NC(=O)Nc2cccc(C)c2)N=C(C(C)C)c2ccccc21 (racemic) [Example 2, N-[(3RS)-1-(2-acetylthiophen-3-yl)methyl-2,3-dihydro-5-isopropyl-2-oxo-1H-1,4-benzodiazepin-3-yl]-N′-(3-methylphenyl)urea] |
| 215 to 218 °C | CC(=O)c1sccc1CN1C(=O)C(NC(=O)Nc2cccc(C)c2)N=C(CC(C)C)c2ccccc21 (racemic) [Example 6(3), N-[(3RS)-2,3-dihydro-5-(2-methylpropyl)-1-(2-methylcarbonylthiophen-3-yl)methyl-2-oxo-1,4-benzodiazepin-3-yl]-N′-(3-methylphenyl)urea] |
| 223.5 to 224.2 °C | Cc1cccc2c1N(CCO)C(=O)C(NC(=O)Nc1cccc(-c3nnn[nH]3)c1)N=C2C1CCCCC1 (racemic) [Example 21-2, N-[(3RS)-5-Cyclohexyl-2,3-dihydro-1-(2-hydroxyethyl)-9-methyl-2-oxo-1H-1,4-benzodiazepin-3-yl]-N′-[3-(tetrazol-5-yl)phenyl]urea] |
| 128.4 to 136.2 °C | CC1=NC(NC(=O)Nc2cccc(C)c2)C(=O)N(CC(=O)c2ccccc2C)c2c(C)cccc21 (racemic) [Example 37, N-[(3RS)-2,3-Dihydro-5,9-dimethyl-1-(2-methylphenacyl)-2-oxo-1H-1,4-benzodiazepin-3-yl]-N′-(3-methylphenyl)urea] |
| 179.6 to 181.2 °C | CC1=NC(NC(=O)Nc2cccc(C)c2)C(=O)N(CC(=O)C(C)(C)C)c2c(C)cccc21 (racemic) [Example 41, N-[(3RS)-2,3-Dihydro-5,9-dimethyl-1-tert-butylcarbonylmethyl-2-oxo-1H-1,4-benzodiazepin-3-yl]-N′-(3-methylphenyl)urea] |
| 125.1 to 127.5 °C | CCC(=O)CN1C(=O)C(NC(=O)Nc2cccc(C)c2)N=C(C)c2cccc(C)c21 (racemic) [Example 44, N-[(3RS)-2,3-Dihydro-1-ethylcarbonylmethyl-5,9-dimethyl-2-oxo-1H-1,4-benzodiazepin-3-yl]-N′-(3-methylphenyl)urea] |
| 126.1 to 127.7 °C | CC(=O)CN1C(=O)C(NC(=O)Nc2cccc(C)c2)N=C(C)c2cccc(C)c21 (racemic) [Example 46, N-[(3RS)-2,3-Dihydro-5,9-dimethyl-1-methylcarbonylmethyl-2-oxo-1H-1,4-benzodiazepin-3-yl]-N′-(3-methylphenyl)urea] |
| 227.1 to 233.2 °C | Cc1cccc2c1N(CC(=O)C1CC1)C(=O)C(NC(=O)Nc1cccc(-c3nnn[nH]3)c1)N=C2C1CCCCC1 (racemic) [Example 47, N-[(3RS)-5-Cyclohexyl-1-cyclopropylcarbonylmethyl-2,3-dihydro-9-methyl-2-oxo-1H-1,4-benzodiazepin-3-yl]-N′-[3-(tetrazol-5-yl)phenyl]urea] |

| Compound | melting point |
| --- | --- |
| CC(=O)OCCN1C(=O)C(NC(=O)Nc2cccc(-c3nnn[nH]3)c2)N=C(C2CCCCC2)c2cccc(C)c21 (racemic) [Example 21-1, N-[(3RS)-1-(2-Acetoxyethyl)-5-cyclohexyl-2,3-dihydro-9-methyl-2-oxo-1H-1,4-benzodiazepin-3-yl]-N′-[3-(tetrazol-5-yl)phenyl]urea] | 165.2 to 168.4 °C |
